Measured values taken from patent publication US5872115A, “2-ureido-benzamide derivatives” (Grelan Pharmaceutical Co. Ltd., priority 1995, dated 1999).

What was measured:
ACAT of THP-1 cells = molecular target: T1, ACAT of THP-1 cells (Homo sapiens, UniProt P35610); test: In-vitro test using THP-1 intact cell (ACAT inhibition); format: cell-based; conditions: read-out: IC50 THP1 (intact cell)
T1 construct: differentiated into macrophage-like cells by phorbol ester; endogenous in cells; host or cells: THP-1 (human leukemia), intact cells differentiated by phorbol ester
T1 sequence (P35610 1-550): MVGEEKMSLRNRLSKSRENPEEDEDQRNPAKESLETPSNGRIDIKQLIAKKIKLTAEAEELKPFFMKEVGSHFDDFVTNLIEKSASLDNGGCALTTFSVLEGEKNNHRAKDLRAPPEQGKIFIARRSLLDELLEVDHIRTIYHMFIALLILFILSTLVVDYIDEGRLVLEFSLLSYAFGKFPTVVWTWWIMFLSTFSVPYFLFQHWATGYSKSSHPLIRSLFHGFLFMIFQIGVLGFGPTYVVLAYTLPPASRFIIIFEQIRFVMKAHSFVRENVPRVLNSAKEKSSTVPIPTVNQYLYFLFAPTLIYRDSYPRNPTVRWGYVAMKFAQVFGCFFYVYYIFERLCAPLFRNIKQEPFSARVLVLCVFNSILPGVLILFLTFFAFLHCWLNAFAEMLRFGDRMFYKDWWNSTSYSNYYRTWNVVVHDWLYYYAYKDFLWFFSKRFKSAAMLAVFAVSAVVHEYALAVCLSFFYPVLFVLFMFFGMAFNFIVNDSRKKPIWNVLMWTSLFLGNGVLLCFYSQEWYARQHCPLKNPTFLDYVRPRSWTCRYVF
Method: (2) In-vitro Test Using THP-1 Intact Cell
About 2 million cells of human leukemia cell line, THP-1 were seeded in a well with 2 ml of medium and differentiated into macrophage-like cells by phorbol ester. Then, the cells were washed with phosphate-buffered saline (PBS) solution and the medium was replaced by fresh medium supplemented with 10% of lipoprotein-deficient serum. After the addition of each test compound dissolved in dimethyl sulfoxide and 100 μg protein-containing human low density lipoprotein (LDL), the reaction was initiated by the addition of 10 nmoles of labeled [^14 C]oleic acid and 10 nmoles of oleic acid complexed with BSA in PBS solution. After 22 hours, the reaction was stopped by removal the medium and CHCl3 -MeOH (2:1) were added to the cell suspension in order to extract lipids.
Intracellular [^14 C] cholesterol-oleate formed was separated by thin-layer chromatography and the radioactivity was counted with lipid scintillation counter.
(§1) ACAT inhibitory activities of the test compounds were shown as IC50 values.

ACAT of HepG2 microsome = test: In-vitro test using Hep G2 microsome (ACAT inhibition); format: biochemical, human
Method: (1) In-vitro Test Using Hep G2 Microsome
ACAT enzyme fraction was prepared from microsome of human derived hepatoma Hep G2 cell according to Sandra's method [Journal of Lipid Research, 27, 875 (1986)].
Microsome was suspended at a concentration of 200 μg protein/20 μl in 0.1M phosphate buffer solution (pH7.4) and the suspension was preincubated at 37° C. for 5 minutes after addition of 10 μl of each test compound dissolved in 0.1M phosphate buffer solution containing bovine serum albmin (BSA). Then, the reaction was initiated by the addition of 5 nmoles of labeled [^14 C]-oleoyl-CoA dissolved in 20 μl of the said phosphate buffer solution containing BSA and the reaction was stopped by the addition of 20 μl of 2N HCl after 10 minutes. [^14 C] cholesterol-oleate formed was separated by thin-layer chromatography and the radioactivity was counted with liquid scintillation counter.
as §1

[1] = Acute toxicity, male ICR strain mouse; format: in vivo; conditions: 1000 mg/kg orally, seven days after administration
Method: (1) Acute toxicity: Nine compounds (Example Nos. 1, 2, 5, 6, 12, 19, 28, 31 and 45) were tested by using male ICR strain mouse weighing 23.0±0.7 g.

ACAT of macrophage = test: In-vivo test using mouse peritoneal macrophages (ACAT inhibition); conditions: male mice, compound in diet for 16 days
Method: (3) In-vivo Test Using Mouse Peritoneal Macrophages
Male mice were fed a standard powder diet containing the test compounds for 16 days. After 14 and 15 days on this diet, aggregated-LDL (containing 4 mg cholesterol) prepared from LDL receptor deficient KHC rabbit and [^14 C] oleic acid together with the said aggregated-LDL (containing 0.5 mg cholesterol) were injected into the peritoneal cavity of these animals, respectively. After 16 days on this treatment, peritoneal macrophages were harvested by peritoneal lavage with PBS solution and CHCl3 -MeOH (2:1) were added to the cell suspension in order to extract lipids. Formed [^14 C] cholesterol oleate was separated by thin-layer chromatography and the radioactivity was counted.
ACAT inhibitory activities of the test compounds were shown as inhibiting percentage referred to control group.

ACAT of macrophages = test: In vivo test using peritoneal macrophages in C57BL/6J mice (ACAT inhibition); parameters: species or system mouse; conditions: Experiment 1; female C57BL/6J mice, 30 mg/kg/day per os for 4 days
Method: (6) In Vivo Test Using Peritoneal Macrophages in C57BL/6J Mice
A standard pellet diet fed female C57BL/6J mice were administered at 10 a.m. per os 30 mg/kg/day of oral suspension (1% CMC-Na 0.2% Tween 80) for 4 days. Thioglycollate and [^14 C] cholesterol were injected […], mice were sacrificed for the collection of peritoneal macrophages. Lipid was extracted, formed [^14 C] cholesterol-ester was separated by thin-layer chromatography and radioactivity was counted as described above in method (3).
In vivo ACAT inhibitory activities on macrophages were expressed as percentage of inhibition compared to control group.

SMILES | IC50 (ACAT of THP-1 cells) [nM] | IC50 (ACAT of HepG2 microsome) [nM] | macroscopic changes on any organs at autopsy [1] | Inhibition rate (macrophages) (ACAT of macrophage) [%] | Inhibition rate (macrophages) (ACAT of macrophages) [%]
CCCCCCCNC(=O)Nc1ccccc1C(=O)NCC1CCN(C(c2ccccc2)c2ccccc2)CC1 [Example 5, 2-(N'-n-Heptylureido)-N-[(1-diphenylmethylpiperidin-4-yl)methyl]benzamide] | 70 | 1600 | no macroscopic changes were observed | 64 | 
CCCCCCCNC(=O)Nc1ccc(N(C)C)cc1C(=O)NCC1CCN(C(c2ccccc2)c2ccccc2)CC1 [Example 1, 2-(N'-n-Heptylureido)-5-dimethylamino-N-[(1-diphenylmethylpiperidin-4-yl)methyl]-benzamide] | 70 | 600 | no macroscopic changes were observed | 65 | 81.0
